Key:
dopamine receptor = test: Dopamine receptor blocking activity in the central nervous system: inhibition of apomorphine induced climbing in the mouse; type: in vivo; details: apomorphine 1 mg/kg s.c.; for ED50 (inhibition of apomorphine induced climbing): scored at 10, 20 and 30 minutes; for inhibition of apomorphine induced climbing, result in words: printed beside ED50 10 mg/kg s.c.
Protocol: Compounds were tested for inhibition of apomorphine induced climbing in the mouse. The test is based on that described by Protais, P., Constantin, J. and Schwartz, J. C. (1976), Psychopharmacology, 50, 1-6.
Apomorphine 1 mg/kg s.c. induces mice to climb the wall of a wire cage (inverted food hopper--11×7.5×18 cm high). Mice acclimatised in their home cages in groups of 5 are placed under the hoppers immediately after the injection of apomorphine 1 mg/kg s.c. At 10, 20 and 30 minutes after injection climbing behaviour is scored. The mice are observed for 30 seconds and scored according to the position they spend the majority of time in, score 0--four paws on floor of cage; score 1--fore paws only on walls; score 2--all paws on wall of cage. The scores at all 3 times and for each mouse are summed and mice drug treated compared to mice receiving apomorphine only. A saline only treated group is also included and any score, generally >5% of maximum taken into account.

intragastric pressure = test: Increase in intragastric pressure (conscious restrained rats, gastric fistula); type: in vivo, rat; details: 40 minute period after administration, Student's t test vs spontaneous activity
Protocol: Intragastric pressure changes were recorded from previously starved conscious but restrained rats using a saline filled catheter inserted into the lumen of the stomach via a permanent gastric fistula. The catheter was connected to a physiological pressure transducer and pressure changes recorded on a hot wire pen recorder. In each animal a pre-dose period of 40 minutes was allowed to obtain a measure of spontaneous activity. An index of activity was obtained by measuring the average height of pressure waves during 10 minute periods. Values for 4 such periods were obtained during assessment of spontaneous activity and for a 40 minute period after administration of compound. Student's `t` test was applied to the difference in average values obtained for spontaneous and post compound activity.

vomiting response = test: Anti-emetic activity in the dog: inhibition of apomorphine-induced vomiting response; type: in vivo; details: s.c. 30 minutes prior to apomorphine HCl 0.1 mg/kg s.c.; for ED50: Canis lupus familiaris, sc
Protocol: Compounds were administered subcutaneously 30 minutes prior to administration of a standard dose of apormorphine HCl (0.1 mg/kg subcutaneously) and the vomiting response compared to that obtained when the same animals were dosed with apomorphine HCl and vehicle only. The ED50 value for inhibition of the vomiting response determined for compounds (17), (29) and (30) was 0.1 mg/kg, and for compound (19) 0.01 mg/kg s.c.

Structure (SMILES): COc1cc(N)c(Cl)cc1C(=O)NC1CC2CCC1CN2C (racemic) [Compound 17, (±)-4-Amino-5-chloro-2-methoxy-N-(5-[2-methyl-2-azabicyclo[2,2,2]octyl]benzamide]
- ED50 (inhibition of apomorphine induced climbing) (dopamine receptor): 7.7 mg/kg s.c.
- index of activity (average height of pressure waves) post administration (intragastric pressure; 0.5 mg/kg s.c.): significantly increased the index of activity
- ED50 (vomiting response): 0.1 mg/kg

Structure (SMILES): COc1cc(N)c(Cl)cc1C(=O)NC1CC2CCC1CN2C (racemic) [Compound 18, (±) 4-Amino-5-chloro-2-methoxy-N-(5-[2-methyl-2-azabicyclo[2,2,2]octyl]benzamide]
- inhibition of apomorphine induced climbing, result in words (dopamine receptor): inactive
- ED50 (inhibition of apomorphine induced climbing) (dopamine receptor): 10 mg/kg s.c.
- index of activity (average height of pressure waves) post administration (intragastric pressure; 0.5 mg/kg s.c.): significantly increased the index of activity

Structure (SMILES): COc1cc(N)c(Cl)cc1C(=O)NC1CC2CCC1CN2Cc1ccccc1 (racemic) [Compound 19, (±)-4-Amino-5-chloro-2-methoxy-N-(5-[2-benzyl-2-azabicyclo[2,2,2]octyl]benzamide]
- ED50 (inhibition of apomorphine induced climbing) (dopamine receptor): 0.36 mg/kg s.c.
- index of activity (average height of pressure waves) post administration (intragastric pressure; 1.0 mg/kg s.c.): similarly active
- ED50 (vomiting response): 0.01 mg/kg

Structure (SMILES): COc1cc(N)c(Cl)cc1C(=O)NC1CC2CCC1CN2Cc1ccccc1 (racemic) [Compound 20, (±) 4-Amino-5-chloro-2-methoxy-N-(5-[2-benzyl-2-azabicyclo[2,2,2]octyl])benzamide]
- ED50 (inhibition of apomorphine induced climbing) (dopamine receptor): 3.6 mg/kg s.c.
- index of activity (average height of pressure waves) post administration (intragastric pressure; 0.5 mg/kg s.c.): significantly increased the index of activity

Structure (SMILES): COc1cc(N)c(Cl)cc1C(=O)NC1CC2CC1CN2C (racemic) [Compound 26, (±) 4-amino-5-chloro-2-methoxy-N-[5-(2-methyl-2-azabicyclo(2.2.1)heptyl)]benzamide]
- inhibition of apomorphine induced climbing, result in words (dopamine receptor): inactive
- ED50 (inhibition of apomorphine induced climbing) (dopamine receptor): 10 mg/kg s.c.
- index of activity (average height of pressure waves) post administration (intragastric pressure; 0.5 mg/kg s.c.): significantly increased the index of activity

Structure (SMILES): COc1cc(N)c(S(C)(=O)=O)cc1C(=O)NC1CC2CCC1CN2Cc1ccccc1 (stereo not shown) [Compound 29, 4-amino-2-methoxy-5-methylsulphonyl-N-[5-(2-benzyl-2-azabicyclo(2.2.2)octyl)]benzamide]
- ED50 (vomiting response): 0.1 mg/kg

Structure (SMILES): COc1cc(N)c(S(C)(=O)=O)cc1C(=O)NC1CC2CCC1CN2Cc1ccccc1 (stereo not shown) [Compound 30, 4-amino-2-methoxy-5-methylsulphonyl-N-[5-(2-benzyl-2-azabicyclo(2.2.2)octyl)]benzamide]
- ED50 value for inhibition of the vomiting response (vomiting response): 0.1 mg/kg
